Experimental data from publication PMC6268439, “Tebrophen — An Old Polyphenol Drug with Anticancer Potential ^†” (Molecules, 2012).

How the values were obtained:
Type in all cases: biochemical
[1] = molecular target: T1, Dipeptidyl peptidase IV (DPPIV/CD26) (Homo sapiens, UniProt P27487); assay: enzyme assay with H-Gly-Pro-pNA substrate; […] inhibition at […]
T1 construct: gene DPP4

ZAP-70 = molecular target: T2, ZAP-70 (Homo sapiens, UniProt P43403); assay: ELISA kinase assay with purified kinase expressed in Sf9, poly Glu:Tyr ([…]) substrate
T2 construct: gene ZAP70
T2 sequence (P43403 1-619): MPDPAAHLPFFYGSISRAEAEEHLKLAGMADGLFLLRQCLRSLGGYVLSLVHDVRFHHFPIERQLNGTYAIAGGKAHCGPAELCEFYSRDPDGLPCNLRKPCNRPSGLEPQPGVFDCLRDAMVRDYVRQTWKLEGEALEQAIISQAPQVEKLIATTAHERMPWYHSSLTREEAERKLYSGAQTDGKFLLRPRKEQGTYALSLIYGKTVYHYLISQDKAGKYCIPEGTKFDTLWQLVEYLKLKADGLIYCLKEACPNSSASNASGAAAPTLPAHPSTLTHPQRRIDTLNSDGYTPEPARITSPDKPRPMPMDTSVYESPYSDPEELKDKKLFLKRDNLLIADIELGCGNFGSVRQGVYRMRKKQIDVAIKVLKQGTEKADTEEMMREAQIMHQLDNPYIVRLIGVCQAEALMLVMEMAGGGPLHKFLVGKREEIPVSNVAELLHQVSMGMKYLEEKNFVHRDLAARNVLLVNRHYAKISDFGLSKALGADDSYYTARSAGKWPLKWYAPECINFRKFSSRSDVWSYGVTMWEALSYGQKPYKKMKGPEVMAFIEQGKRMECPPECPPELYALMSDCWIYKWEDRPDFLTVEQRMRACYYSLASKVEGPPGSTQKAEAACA

Lck = Lck (Homo sapiens, UniProt P06239); assay: as above
Chain of Lck (P06239 2-509): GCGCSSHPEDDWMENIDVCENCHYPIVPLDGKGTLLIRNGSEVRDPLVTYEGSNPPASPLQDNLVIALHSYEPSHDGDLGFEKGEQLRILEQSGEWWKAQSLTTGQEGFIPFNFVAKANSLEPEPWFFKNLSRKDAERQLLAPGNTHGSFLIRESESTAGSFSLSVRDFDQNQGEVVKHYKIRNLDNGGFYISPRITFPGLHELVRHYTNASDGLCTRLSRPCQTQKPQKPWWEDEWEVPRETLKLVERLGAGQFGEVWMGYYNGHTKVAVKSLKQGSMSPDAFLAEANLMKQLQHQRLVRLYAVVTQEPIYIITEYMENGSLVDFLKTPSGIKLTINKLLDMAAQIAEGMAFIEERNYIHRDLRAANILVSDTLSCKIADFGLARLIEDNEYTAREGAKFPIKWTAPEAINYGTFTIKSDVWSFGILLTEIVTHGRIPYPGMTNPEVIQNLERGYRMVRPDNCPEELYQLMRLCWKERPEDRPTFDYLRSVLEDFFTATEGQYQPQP

T1 sequence (P27487 39-766): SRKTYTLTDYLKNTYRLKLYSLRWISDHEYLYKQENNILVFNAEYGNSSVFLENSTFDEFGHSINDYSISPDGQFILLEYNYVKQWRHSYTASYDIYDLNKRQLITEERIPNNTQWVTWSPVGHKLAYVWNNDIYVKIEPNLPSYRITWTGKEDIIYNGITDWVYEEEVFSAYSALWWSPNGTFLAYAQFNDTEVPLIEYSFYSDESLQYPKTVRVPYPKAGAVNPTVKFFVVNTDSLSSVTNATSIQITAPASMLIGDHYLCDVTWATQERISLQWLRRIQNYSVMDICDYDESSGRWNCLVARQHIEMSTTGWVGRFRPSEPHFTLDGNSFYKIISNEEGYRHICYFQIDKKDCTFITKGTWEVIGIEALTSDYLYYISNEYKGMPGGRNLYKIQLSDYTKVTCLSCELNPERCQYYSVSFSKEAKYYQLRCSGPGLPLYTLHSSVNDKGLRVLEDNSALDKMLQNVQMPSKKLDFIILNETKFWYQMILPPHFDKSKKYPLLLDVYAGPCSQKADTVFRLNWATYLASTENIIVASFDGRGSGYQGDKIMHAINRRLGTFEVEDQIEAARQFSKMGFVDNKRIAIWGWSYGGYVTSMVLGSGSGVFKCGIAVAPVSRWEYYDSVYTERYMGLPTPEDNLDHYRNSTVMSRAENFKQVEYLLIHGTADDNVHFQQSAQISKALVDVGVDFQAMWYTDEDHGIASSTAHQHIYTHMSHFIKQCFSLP

Which inhibition at 80 µM [1] does the source give for Oc1c(Br)cc(-c2cc(Br)c(O)c(Br)c2O)c(O)c1Br [tebrophen, 3,3',5,5'-tetrabromobiphenyl-2,2',4,4'-tetrol] here?
Its inhibition at 80 µM is 41%.

What about the IC50 (ZAP-70) of the same molecule?
Its IC50 is 340 nM.

What about the IC50 (Lck) of the same molecule?
Its IC50 is 16 µM.
